How the values were obtained:
[1] = system: Hepatitis C virus; experiment: Antiviral activity against HCV assessed as inhibition of viral RNA replication in replicon cells by luciferase reporter gene assay; assay type: functional, Hepacivirus hominis
[2] = target: Genome polyprotein (Hepatitis C virus genotype 1b (strain HC-J4) (HCV), UniProt O92972); experiment: Inhibition of HCV genotype 1b J4 NS5B RNA dependent RNA polymerase; parameters: species or system Hepatitis C virus isolate HC-J4
[3] = target: RNA-directed RNA polymerase (Hepacivirus hominis, UniProt O39930); experiment: Inhibition of HCV NS5B RNA dependent RNA polymerase
Chain of RNA-directed RNA polymerase (O39930 whole entry): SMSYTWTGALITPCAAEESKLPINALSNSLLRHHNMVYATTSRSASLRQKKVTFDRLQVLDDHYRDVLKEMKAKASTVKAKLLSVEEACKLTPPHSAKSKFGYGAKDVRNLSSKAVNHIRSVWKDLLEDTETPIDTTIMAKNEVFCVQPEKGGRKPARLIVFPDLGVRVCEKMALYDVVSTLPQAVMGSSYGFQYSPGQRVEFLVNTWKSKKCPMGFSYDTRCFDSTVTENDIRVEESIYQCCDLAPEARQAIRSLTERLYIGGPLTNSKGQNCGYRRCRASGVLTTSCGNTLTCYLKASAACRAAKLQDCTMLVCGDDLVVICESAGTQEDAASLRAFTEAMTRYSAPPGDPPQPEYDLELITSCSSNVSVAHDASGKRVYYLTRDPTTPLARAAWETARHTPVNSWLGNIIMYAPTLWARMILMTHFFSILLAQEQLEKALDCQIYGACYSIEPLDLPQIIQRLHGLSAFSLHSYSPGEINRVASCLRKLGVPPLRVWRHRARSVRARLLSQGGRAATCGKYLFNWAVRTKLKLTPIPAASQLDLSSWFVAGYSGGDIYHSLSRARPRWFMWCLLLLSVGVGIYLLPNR

[4] = target: Genome polyprotein (Hepatitis C virus genotype 1b (isolate Con1) (HCV), UniProt Q9WMX2); experiment: Inhibition of HCV genotype 1b Con1 NS5B RNA dependent RNA polymerase
Chain of Genome polyprotein (Hepatitis C virus genotype 1b (isolate Con1) (HCV), UniProt Q9WMX2) (Q9WMX2 2420-3010 limits assumed): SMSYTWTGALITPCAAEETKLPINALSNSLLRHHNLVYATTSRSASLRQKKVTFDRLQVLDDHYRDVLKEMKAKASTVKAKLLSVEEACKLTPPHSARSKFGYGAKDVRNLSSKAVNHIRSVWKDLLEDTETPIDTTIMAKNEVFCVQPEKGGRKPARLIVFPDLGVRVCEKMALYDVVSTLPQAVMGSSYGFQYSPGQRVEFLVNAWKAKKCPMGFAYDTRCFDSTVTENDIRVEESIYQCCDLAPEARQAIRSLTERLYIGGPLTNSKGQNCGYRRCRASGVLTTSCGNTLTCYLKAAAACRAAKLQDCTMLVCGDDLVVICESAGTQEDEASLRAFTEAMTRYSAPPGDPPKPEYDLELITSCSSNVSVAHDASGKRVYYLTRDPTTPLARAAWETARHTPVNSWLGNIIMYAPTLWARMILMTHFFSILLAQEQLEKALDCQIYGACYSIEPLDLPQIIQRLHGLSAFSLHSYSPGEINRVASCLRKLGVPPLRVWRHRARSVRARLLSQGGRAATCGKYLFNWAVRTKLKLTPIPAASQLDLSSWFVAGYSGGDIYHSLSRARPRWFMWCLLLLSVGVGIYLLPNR

Chain of Genome polyprotein (Hepatitis C virus genotype 1b (strain HC-J4) (HCV), UniProt O92972) (O92972 2420-3010 limits assumed): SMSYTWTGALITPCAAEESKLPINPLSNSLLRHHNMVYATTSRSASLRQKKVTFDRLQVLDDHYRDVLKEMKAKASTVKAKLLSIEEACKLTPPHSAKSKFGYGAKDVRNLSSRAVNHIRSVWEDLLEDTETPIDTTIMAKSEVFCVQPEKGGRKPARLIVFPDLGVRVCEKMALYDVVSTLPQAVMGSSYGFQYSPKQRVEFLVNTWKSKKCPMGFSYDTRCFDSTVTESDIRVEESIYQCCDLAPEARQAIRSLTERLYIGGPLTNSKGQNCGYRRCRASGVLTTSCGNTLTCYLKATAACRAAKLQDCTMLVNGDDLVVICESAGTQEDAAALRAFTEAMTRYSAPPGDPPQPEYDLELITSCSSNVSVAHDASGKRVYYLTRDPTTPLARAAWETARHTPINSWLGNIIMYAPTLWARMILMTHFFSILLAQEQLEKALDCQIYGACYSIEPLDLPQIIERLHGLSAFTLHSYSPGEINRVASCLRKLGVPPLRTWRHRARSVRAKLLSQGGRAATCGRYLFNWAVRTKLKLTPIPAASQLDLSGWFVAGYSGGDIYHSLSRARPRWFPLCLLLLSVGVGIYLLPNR

In the case of COP(=O)(Nc1cc(-c2ccc(-c3cc4ncccc4o3)cc2)sc1C(=O)O)c1ccc(C)cc1C (stereo not given), the EC50 [1] is reported as 0.0007 µM and the IC50 [2] is reported as 0.0054 µM.
COP(=O)(Nc1cc(-c2ccc(Cl)cc2)sc1C(=O)O)c1ccc(C)cc1C (stereo not given) showed an EC50 [1] of 0.66 µM and an IC50 [2] of 0.021 µM.
Cc1ccc(P(=O)(Nc2cc(-c3ccc(Cl)cc3)sc2C(=O)O)OC(C)C)c(C)c1 (stereo not given) gave an EC50 [1] of 2.28 µM and an IC50 [2] of 0.189 µM.
Cc1ccc(P(=O)(Nc2cc(-c3ccc(Cl)cc3)sc2C(=O)O)OCC(C)C)c(C)c1 (stereo not given) was tested, and the EC50 [1] was 3.04 µM and the IC50 [2] was 0.223 µM.
With COP(=O)(Nc1cc(-c2ccc(C#Cc3ccsc3)cc2)sc1C(=O)O)c1ccc(C)cc1C (stereo not given) the EC50 [1] was 0.0048 µM and the IC50 [2] was 0.0092 µM.
Work on CC(C)N(c1cc(-c2ccccc2)sc1C(=O)O)C(=O)[C@H]1CC[C@H](C)CC1 yielded an EC50 [1] of 0.369 to 0.6 µM, an IC50 [2] of 0.035 µM and an IC50 [3] of 1.5 µM.
Compound CCCCOP(=O)(Nc1cc(-c2ccc(Cl)cc2)sc1C(=O)O)c1ccc(C)cc1C (stereo not given) has an EC50 [1] of 2.71 µM and an IC50 [2] of 0.17 µM.
In the case of COP(=O)(Nc1cc(-c2ccc(-c3cc4ccccc4s3)cc2)sc1C(=O)O)c1ccc(C)cc1C (stereo not given), the EC50 [1] is reported as 0.0232 µM and the IC50 [2] is reported as 0.0163 µM.
Compound COP(=O)(Nc1cc(-c2ccc(-c3cc4nc(C)ccn4n3)cc2)sc1C(=O)O)c1ccc(C)cc1C (stereo not given) has an EC50 [1] of 0.0007 µM and an IC50 [2] of 0.0078 µM.
Cc1ccc(P(=O)(Nc2cc(-c3ccc(Cl)cc3)sc2C(=O)O)OCc2cc3ccccc3o2)c(C)c1 (stereo not given) was tested, and the EC50 [1] was 2.7 µM and the IC50 [2] was 0.425 µM.
With COP(=O)(Nc1cc(-c2ccc(-c3cc4nc(C)cc(N)n4n3)cc2)sc1C(=O)O)c1ccc(C)cc1C (stereo not given) the EC50 [1] was 0.0005 µM, the IC50 [2] was 0.0051 µM and the IC50 [4] was 0.009 µM.
Compound CCOP(=O)(Nc1cc(-c2ccc(Cl)cc2)sc1C(=O)O)C1CC=C(C)CC1 (stereo not given) has an EC50 [1] greater than 8.3 µM and an IC50 [2] of 1.13 µM.
COP(=O)(c1ccc(C)cc1C)N(c1cc(-c2ccc(F)cc2)sc1C(=O)O)C(C)C (stereo not given) was tested, and the EC50 [1] was 4.19 µM and the IC50 [2] was 0.517 µM.
COP(=O)(Nc1cc(-c2ccc(Cl)cc2)sc1C(=O)O)c1ccc(Cl)cc1F (stereo not given) showed an EC50 [1] of 3.35 µM and an IC50 [2] of 0.298 µM.
In the case of COP(=O)(c1ccc(C)cc1C)N(C)c1cc(-c2ccc(Cl)cc2)sc1C(=O)O (stereo not given), the EC50 [1] is reported as 2.82 µM and the IC50 [2] is reported as 0.059 µM.
Work on Cc1ccc(P(=O)(Nc2cc(-c3ccc(Cl)cc3)sc2C(=O)O)OCCC(C)C)c(C)c1 (stereo not given) yielded an EC50 [1] of 3.56 µM and an IC50 [2] of 0.298 µM.
CCOP(=O)(Nc1cc(-c2ccc(Cl)cc2)sc1C(=O)O)C1CCC(C)CC1 (stereo not given) gave an EC50 [1] greater than 8.3 µM and an IC50 [2] of 3.74 µM.
For CCOP(=O)(Nc1cc(-c2ccccc2)sc1C(=O)O)C1CCC(C)CC1 (stereo not given), the EC50 [1] was greater than 8.3 µM and the IC50 [2] was greater than 10 µM.
Compound COP(=O)(Nc1cc(-c2ccc(-c3cc4ccccc4o3)cc2)sc1C(=O)O)c1ccc(C)cc1C (stereo not given) has an EC50 [1] of 0.0017 µM and an IC50 [2] of 0.0056 µM.
Work on COP(=O)(Nc1cc(-c2ccc(Cl)cc2)sc1C(=O)O)c1ccc(Cl)cc1C (stereo not given) yielded an EC50 [1] of 1.55 µM and an IC50 [2] of 0.026 µM.
C=CP(=O)(Nc1cc(-c2ccc(Cl)cc2)sc1C(=O)O)OCC (stereo not given) showed an EC50 [1] greater than 8.3 µM and an IC50 [2] greater than 10000 µM.
Compound Cc1ccc(S(=O)(=O)Nc2cc(-c3ccccc3)sc2C(=O)O)c(C)c1 has an EC50 [1] of 5 µM and an IC50 [3] of 1 µM.
With CCOP(=O)(Nc1cc(-c2ccc(Cl)cc2)sc1C(=O)O)c1ccc(Cl)cc1C (stereo not given) the EC50 [1] was 2.92 µM and the IC50 [2] was 0.081 µM.
COP(=O)(Nc1cc(-c2ccc(F)cc2)sc1C(=O)O)c1ccc(C)cc1C (stereo not given) was tested, and the EC50 [1] was 2.14 µM and the IC50 [2] was 0.118 µM.
With COCCOP(=O)(Nc1cc(-c2ccc(Cl)cc2)sc1C(=O)O)c1ccc(C)cc1C (stereo not given) the EC50 [1] was 2.66 µM and the IC50 [2] was 0.135 µM.
Compound Cc1ccc(P(=O)(Nc2cc(-c3ccc(Cl)cc3)sc2C(=O)O)OCCc2ccc(F)cc2)c(C)c1 (stereo not given) has an EC50 [1] of 2.41 µM and an IC50 [2] of 0.314 µM.
In the case of COP(=O)(Nc1cc(-c2ccc(C#CC3CC3)cc2)sc1C(=O)O)c1ccc(C)cc1C (stereo not given), the EC50 [1] is reported as 2.47 µM and the IC50 [2] is reported as 0.0458 µM.
Cc1ccc(P(=O)(Nc2cc(-c3ccc(Cl)cc3)sc2C(=O)O)OCC2CCOCC2)c(C)c1 (stereo not given) was tested, and the EC50 [1] was 0.32 µM and the IC50 [2] was 0.154 µM.
CCCOP(=O)(Nc1cc(-c2ccc(Cl)cc2)sc1C(=O)O)c1ccc(C)cc1C (stereo not given) showed an EC50 [1] of 3.53 µM and an IC50 [2] of 0.147 µM.
